From patent US9434725B2, “5-azaindazole compounds and methods of use” (priority 2012, dated 2016)

What was measured:
PIM2 = PIM2 (Homo sapiens (Human), UniProt Q9P1W9); assay: Pim kinase binding activity, Caliper LC3000 microfluidic peptide phosphorylation assay, PIM2; format: biochemical; conditions: 10 μM ATP, 90 min, room temperature; read-out: PIM2 LC3K (KI)
Protocol: (§1) A fluorescent-labeled Pim-specific peptide substrate, was custom synthesized by American Peptide Company (Sunnyvale, Calif.). Reaction Buffer contained 10 mM HEPES, pH 7.2, 10 mM MgCl2, 0.01% Tween 20, 2 mM DTT. Termination Buffer contained 190 mM HEPES, pH 7.2, 0.015% Brij-35, 0.2% Coating Reagent 3 (Caliper Life Sciences, Hopkinton, Mass.), 20 mM EDTA. Separation Buffer contained 100 mM HEPES, pH 7.2, 0.015% Brij-35, 0.1% Coating Reagent 3, 1:200 Coating Reagent 8 (Caliper Life Sciences, Hopkinton, Mass.), 10 mM EDTA and 5% DMSO.
(§2) PIM reactions were carried out in a final volume of 10 μL per well in a 384-well plate. […] After 90 minutes of incubation at room temperature, the phosphorylation reaction was stopped by the addition of 10 μL Termination Buffer. The product and substrate in each independent reaction were separated on a 12-sipper microfluidic chip (Caliper Life Sciences, Hopkinton, Mass.) run on a Caliper LC3000® (Caliper Life Sciences, Hopkinton, Mass.). The separation of product and substrate was optimized by choosing voltages and pressure using Caliper's Optimizer software (Hopkinton, Mass.). […] Substrate conversion was calculated from the electropherogram using HTS Well Analyzer software (Caliper Life Sciences, Hopkinton, Mass.). Ki values for the test compound were calculated.

PIM3 = PIM3 (Homo sapiens (Human), UniProt Q86V86); assay: Pim kinase binding activity, Caliper LC3000 microfluidic peptide phosphorylation assay, PIM3; format: biochemical; conditions: 10 μM ATP, 90 min, room temperature; read-out: PIM3 LC3K (KI)
Protocol: as §1, §2

PIM2, sequence (Q9P1W9 whole entry): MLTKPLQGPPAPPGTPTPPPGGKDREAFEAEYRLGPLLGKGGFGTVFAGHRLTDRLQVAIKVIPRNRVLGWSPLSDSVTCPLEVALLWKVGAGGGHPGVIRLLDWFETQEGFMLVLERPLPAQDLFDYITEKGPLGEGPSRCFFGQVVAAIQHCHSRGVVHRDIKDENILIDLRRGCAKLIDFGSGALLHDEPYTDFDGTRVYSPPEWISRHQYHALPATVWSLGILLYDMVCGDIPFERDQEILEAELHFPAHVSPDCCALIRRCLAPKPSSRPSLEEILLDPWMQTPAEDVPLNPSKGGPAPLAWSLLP

Row | Ki (PIM2) | Ki (PIM3) | Compound
1 | 10.5 nM | 0.301 nM | CCc1cncc(-c2cc3c(cn2)cnn3-c2cccc(N3CCNC[C@H](O)C3)n2)c1 (single isomer, unassigned) [Compound 121]
2 | 1.03 nM | 0.057 nM | Cc1cncc(-c2cc3c(cn2)cnn3-c2cccc(N3CCCC(N)C3C)n2)n1 (stereo not drawn) [Compound 195, 2-methyl-1-[6-[6-(6-methylpyrazin-2-yl)pyrazolo[4,3-c]pyridin-1-yl]-2-pyridyl]piperidin-3-amine]
3 | 1.06 nM |  | Cc1cncc(-c2cc3c(cn2)cnn3-c2cccc(N3CCCCC(N)C3)n2)n1 (stereo not drawn) [Compound 187, 1-[6-[6-(6-methylpyrazin-2-yl)pyrazolo[4,3-c]pyridin-1-yl]-2-pyridyl]azepan-3-amine]
4 |  | 0.562 nM | Cc1cncc(-c2cc3c(cn2)cnn3-c2cccc(N(C)C)n2)n1 [Compound 296, N,N-dimethyl-6-(6-(6-methylpyrazin-2-yl)-1H-pyrazolo[4,3-c]pyridin-1-yl)pyridin-2-amine]
5 | 0.477 nM | 0.025 nM | Cc1cncc(-c2cc3c(cn2)cnn3-c2cccc(N3CCCC(N)C3C)n2)n1 (single isomer, unassigned) [Compound 204, 2-methyl-1-[6-[6-(6-methylpyrazin-2-yl)pyrazolo[4,3-c]pyridin-1-yl]-2-pyridyl]piperidin-3-amine]
6 | 0.115 nM | 0.009 nM | Cc1cncc(-c2cc3c(cn2)cnn3-c2ccc(C(F)(F)F)c(N3CCC[C@H](N)C3)n2)n1 [Compound 220, (S)-1-(6-(6-(6-methylpyrazin-2-yl)-1H-pyrazolo[4,3-c]pyridin-1-yl)-3-(trifluoromethyl)pyridin-2-yl)piperidin-3-amine]
7 | 5.01 nM | 0.097 nM | Cn1cc(-c2cc3c(cn2)cnn3-c2cccc(N3CCCNCC3)n2)cn1 [Compound 224, 1-(6-(1,4-Diazepan-1-yl)pyridin-2-yl)-6-(1-methyl-1H-pyrazol-4-yl)-1H-pyrazolo[4,3-c]pyridine]
8 | 2.27 nM | 0.34 nM | Cc1cncc(-c2cc3c(cn2)cnn3-c2cccc(N3CC[C@H](N)C3)n2)n1 [Compound 167, (3S)-1-[6-[6-(6-methylpyrazin-2-yl)pyrazolo[4,3-c]pyridin-1-yl]-2-pyridyl]pyrrolidin-3-amine]
9 | 4.27 nM |  | CCn1cc(-c2cc3c(cn2)cnn3-c2cccc(N3CCCNCC3)n2)cn1 [Compound 125, 1-(6-(1,4-diazepan-1-yl)pyridin-2-yl)-6-(1-ethyl-1H-pyrazol-4-yl)-1H-pyrazolo[4,3-c]pyridine]
10 | 1.93 nM | 0.049 nM | CC(C)c1cncc(-c2cc3c(cn2)cnn3-c2cccc(N3CCC[C@H](N)C3)n2)c1 [Compound 108, (3S)-1-[6-[6-(5-isopropyl-3-pyridyl)pyrazolo[4,3-c]pyridin-1-yl]-2-pyridyl]piperidin-3-amine]
11 |  | 0.019 nM | Cc1cncc(-c2cc3c(cn2)cnn3-c2ccc(C(F)F)c(N3CCC[C@H](N)C3)n2)n1 [Compound 227, (S)-1-(3-(difluoromethyl)-6-(6-(6-methylpyrazin-2-yl)-1H-pyrazolo[4,3-c]pyridin-1-yl)pyridin-2-yl)piperidin-3-amine]
12 | 4.29 nM | 0.267 nM | Cc1cncc(-c2cc3c(cn2)cnn3-c2cccc(N3CCC[C@H](N)C3=O)n2)n1 [Compound 225, (3S)-3-amino-1-[6-[6-(6-methylpyrazin-2-yl)pyrazolo[4,3-c]pyridin-1-yl]-2-pyridyl]piperidin-2-one]
13 | 0.37 nM | 0.014 nM | CCc1cncc(-c2cc3c(cn2)cnn3-c2cccc(N3CCC[C@H](N)C3)n2)n1 [Compound 156, (3S)-1-[6-[6-(6-ethylpyrazin-2-yl)pyrazolo[4,3-c]pyridin-1-yl]-2-pyridyl]piperidin-3-amine]
14 | 7.14 nM | 0.183 nM | CC(C)c1cncc(-c2cc3c(cn2)cnn3-c2cccc(N3CCNCC3)n2)c1 [Compound 105, 6-(5-isopropylpyridin-3-yl)-1-(6-(piperazin-1-yl)pyridin-2-yl)-1H-pyrazolo[4,3-c]pyridine]
15 | 1000 nM |  | Cc1cncc(-c2cc3c(cn2)cnn3-c2ccc(=O)n([C@H]3CCCNC3)n2)n1 [Compound 289, (S)-6-(6-(6-methylpyrazin-2-yl)-1H-pyrazolo[4,3-c]pyridin-1-yl)-2-(piperidin-3-yl)pyridazin-3(2H)-one]
16 | 2.26 nM | 0.814 nM | FC(F)Cn1cc(-c2cc3c(cn2)cnn3-c2cccc(N3CCCNCC3)n2)cn1 [Compound 162, 1-(6-(1,4-Diazepan-1-yl)pyridin-2-yl)-6-(1-(2,2-difluoroethyl)-1H-pyrazol-4-yl)-1H-pyrazolo[4,3-c]pyridine]
17 | 193 nM | 15.6 nM | Cc1cncc(-c2cc3c(cn2)cnn3-c2cccc(C(=O)N3CCC[C@@H](N)C3)n2)n1 [Compound 303, (R)-(3-aminopiperidin-1-yl)(6-(6-(6-methylpyrazin-2-yl)-1H-pyrazolo[4,3-c]pyridin-1-yl)pyridin-2-yl)methanone]
18 | 0.659 nM | 0.033 nM | Cc1cncc(-c2cc3c(cn2)cnn3-c2cccc(N3CCNC[C@H]3C)n2)n1 [Compound 191, 1-[6-[(2R)-2-methylpiperazin-1-yl]-2-pyridyl]-6-(6-methylpyrazin-2-yl)pyrazolo[4,3-c]pyridine]
19 | 2.42 nM | 0.076 nM | Cc1cncc(-c2cc3c(cn2)cnn3-c2cccc(N3CCNC(C)CC3)n2)n1 (stereo not drawn) [Compound 184, 1-[6-(5-methyl-1 4-diazepan-1-yl)-2-pyridyl]-6-(6-methylpyrazin-2-yl)pyrazolo[4,3-c]pyridine]
20 |  | 1.76 nM | FC(F)(F)Cn1cc(-c2cc3c(cn2)cnn3-c2ccnc(N3CCCNCC3)n2)cn1 [Compound 179, 1-(2-(1,4-Diazepan-1-yl)pyrimidin-4-yl)-6-(1-(2,2,2-trifluoroethyl)-1H-pyrazol-4-yl)-1H-pyrazolo-[4,3-c]pyridine]
21 | 4.62 nM | 0.447 nM | Cc1cncc(-c2cc3c(cn2)cnn3-c2cccc(C3CCNCC3)n2)n1 [Compound 166, 6-(6-methylpyrazin-2-yl)-1-[6-(4-piperidyl)-2-pyridyl]pyrazolo[4,3-c]pyridine]
22 | 2.76 nM | 0.065 nM | CC(C)c1cncc(-c2cc3c(cn2)cnn3-c2cccc(N3CCCNCC3)n2)c1 [Compound 103, 1-(6-(1,4-diazepan-1-yl)pyridin-2-yl)-6-(5-isopropylpyridin-3-yl)-1H-pyrazolo[4,3-c]pyridine]
23 | 0.187 nM | 0.035 nM | CCc1cncc(-c2cc3c(cn2)cnn3-c2ccc(C3CC3)c(N3CCC[C@H](N)C3)n2)c1 [Compound 139, (S)-1-(3-cyclopropyl-6-(6-(5-ethylpyridin-3-yl)-1H-pyrazolo[4,3-c]pyridin-1-yl)pyridin-2-yl)piperidin-3-amine]
24 | 3.43 nM | 0.235 nM | CNc1cccc(-n2ncc3cnc(-c4cncc(C)n4)cc32)n1 [Compound 297, N-methyl-6-(6-(6-methylpyrazin-2-yl)-1H-pyrazolo[4,3-c]pyridin-1-yl)pyridin-2-amine]
25 | 1.6 nM | 0.086 nM | c1cc(N2CCCNCC2)nc(-n2ncc3cnc(-c4cn[nH]c4)cc32)c1 [Compound 180, 1-(6-(1,4-Diazepan-1-yl)pyridin-2-yl)-6-(1H-pyrazol-4-yl)-1H-pyrazolo[4,3-c]pyridine]
26 | 183 nM | 20.1 nM | Cc1cncc(-c2cc3c(cn2)cnn3-c2cccc(C(=O)N3CCC[C@H](N)C3)n2)n1 [Compound 302, (S)-(3-aminopiperidin-1-yl)(6-(6-(6-methylpyrazin-2-yl)-1H-pyrazolo[4,3-c]pyridin-1-yl)pyridin-2-yl)methanone]
27 | 0.317 nM | 0.047 nM | Cc1cncc(-c2cc3c(cn2)cnn3-c2ccc(Cl)c(N3CCC[C@H](N)C3)n2)n1 [Compound 176, (S)-1-(3-chloro-6-(6-(6-methylpyrazin-2-yl)-1H-pyrazolo[4,3-c]pyridin-1-yl)pyridin-2-yl)piperidin-3-amine]
28 | 4.66 nM | 0.168 nM | Cc1cc(-c2cc3c(cn2)cnn3-c2cccc(N3CCCNCC3)n2)sn1 [Compound 120, 5-[1-[6-(1 4-diazepan-1-yl)-2-pyridyl]pyrazolo[4,3-c]pyridin-6-yl]-3-methyl-isothiazole]
29 | 7.26 nM |  | CCc1cncc(-c2cc3c(cn2)cnn3-c2cccc(N3CCNCC(O)C3)n2)c1 (stereo not drawn) [Compound 106, 1-(6-(6-(5-ethylpyridin-3-yl)-1H-pyrazolo[4,3-c]pyridin-1-yl)pyridin-2-yl)-1,4-diazepan-6-ol]
30 | 0.864 nM |  | Cc1cncc(-c2cc3c(cn2)cnn3-c2cccc(N3CCNC[C@@H]3C)n2)n1 [Compound 196, 1-[6-[(2S)-2-methylpiperazin-1-yl]-2-pyridyl]-6-(6-methylpyrazin-2-yl)pyrazolo[4,3-c]pyridine]

Row | Compound | Ki (PIM2) | Ki (PIM3)
31 | CCn1cc(-c2cc3c(cn2)cnn3-c2cccc(N3CCNCC3)n2)cn1 [Compound 101, 6-(1-ethylpyrazol-4-yl)-1-(6-piperazin-1-yl-2-pyridyl)pyrazolo[4,3-c]pyridine] | 14.6 nM | 0.676 nM
